Source: patent publication US8304422B2, “Compositions and methods for inhibition of the JAK pathway” (Rigel Pharmaceuticals, Inc., priority 2007, dated 2012)

Test system: BaF3 V617F cells; UKE-1
Assay: Proliferation Assay (Cell Titer-Glo; Example 7)
Assay type: cell-based
Settings: proliferation 72 hours, inhibit JAK2 activity, cell line (BaF3 V617F or UKE-1) not stated
How it was run: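 Proliferation IC50s reflect 72 h compound exposure at 37 °C, read by Cell Titer-Glo luminescence. Compound was serially diluted 3-fold from a 5 mM DMSO stock and added as a 2× solution; BaF3 V617F cells were grown in RPMI/10% FBS, UKE-1 in Iscove's DMEM with FBS, equine serum and hydrocortisone.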

| Compound | IC50 [nM] |
| --- | --- |
| 5-Chloro-N4-[3-(N-tert-butylsulfonyl)phenyl]-N2-[3,5-dimethyl-4-(2-(1-morpholino)ethoxyphenyl]-2,4-pyrimidinediamine [I-21] | 243 |
| COc1c(C)cc(Nc2ncc(Cl)c(Nc3ccc4c(c3)S(=O)(=O)NCC4)n2)cc1C [VII-1, 5-Chloro-N4-[3,4-dihydro-1,1-dioxide-2H-1,2-benzothiazin-7-yl]-N2-[3,5-dimethyl-4-methoxyphenyl]-2,4-pyrimidinediamine] | 229 |
| Cc1cc(Nc2ncc(Cl)c(Nc3ccc(CNS(N)(=O)=O)cc3)n2)ccc1N1CCN(C)CC1 [II-149, N4-[4-(Aminosulfonylamino)methylphenyl]-5-chloro-N2-[3-methyl-4-(4-methyl-1-piperazinyl)phenyl]-2,4-pyrimidinediamine] | 1040 |
| CCNS(=O)(=O)NCc1cccc(Nc2nc(Nc3ccc(N4CCN(C)CC4)cc3)ncc2C)c1 [II-135, N4-[(3-(Ethylamino)sulfonylamino)methylphenyl]-5-methyl-N2-[4-(4-methyl-1-piperazinyl)phenyl]-2,4-pyrimidinediamine] | 267 |
| CC1CN(CCOc2ccc(Nc3ncc(Cl)c(Nc4ccc(CCNS(=O)(=O)C5CC5)cc4)n3)cc2)CC(C)O1 (stereo not drawn) [II-49] | 339 |
| COc1c(C)cc(Nc2ncc(Cl)c(Nc3ccc(CNS(N)(=O)=O)cc3)n2)cc1C [II-146, N4-[4-(Aminosulfonylamino)methylphenyl]-5-chloro-N2-(3,5-dimethyl-4-methoxyphenyl)-2,4-pyrimidinediamine] | 225 |
| CCNS(=O)(=O)NCc1ccc(Nc2nc(Nc3ccc(C4CCN(C)CC4)cc3)ncc2Cl)cc1 [II-115, 5-chloro-N4-[(4-(ethylamino)sulfonylamino)methylphenyl]-N2-[4-(1-methyl-4-piperidinyl)pheny]-2,4-pyrimidinediamine] | 409 |
| 5-Chloro-N2-(3,5-dimethyl-5-methoxyphenyl)-N4-[(4-(dimethylamino)sulfonylamino)methylphenyl]-2,4-pyrimidinediamine [II-90] | 83.6 |
| COc1c(C)cc(Nc2ncc(C)c(Nc3ccc(CNS(=O)(=O)N(C)C)cc3)n2)cc1Cl [II-101, 5-Methyl-N2-(3-chloro-4-methoxy-5-methylphenyl)-N4-[(4-(dimethylamino)sulfonylamino)methylphenyl]-2,4-pyrimidinediamine] | 194 |
| N4-[4-(N-Cyclopropylsulfonylamino)methylphenyl]-N2-[3,4-dimethyl-4-(2-(4-morpholinyl)ethoxy)phenyl]-5-methyl-2,4-pyrimidinediamine [II-159] | 47.6 |
| Cc1cc(N2CCN(C)CC2)ccc1Nc1ncc(Cl)c(Nc2ccc(CCNS(=O)(=O)C3CC3)cc2)n1 [II-52, 5-Chloro-N4[4-(N-cyclopropylsulfonylamino)ethylphenyl]-N2-[4-(4-methylpiperazino)-2-methylphenyl]-2,4-pyrimidinediamine] | 6120 |
| CCNS(=O)(=O)NCc1ccc(Nc2nc(Nc3cc(Cl)c(OC)c(OC)c3)ncc2C)cc1 [II-121, N2-(3-Chloro-4,5-dimethoxyphenyl)-N4-[(4-(ethylamino)sulfonylamino)methylphenyl]-5-methyl-2,4-pyrimidinediamine] | 363 |
| Cc1cnc(Nc2ccc(N3CCN(S(C)(=O)=O)CC3)cc2C(F)(F)F)nc1Nc1ccc(CCNS(=O)(=O)C2CC2)cc1 [II-72] | 18300 |
| O=S(=O)(NCCc1ccc(Nc2nc(Nc3ccc(-c4ccccc4)cc3)ncc2Cl)cc1)C1CC1 [II-58, 5-Chloro-N4[4-(N-cyclopropylsulfonylamino)ethylphenyl]-N2-[4-biphenyl]-2,4-pyrimidinediamine] | 16200 |
| COc1c(C)cc(Nc2ncc(C)c(Nc3ccc4c(c3)CCN(S(=O)(=O)C3CC3)C4)n2)cc1C [VIII-9, N4-[(N-cyclopropylsulfonyl)-1,2,3,4-tetrahydroisoquinolin-6-yl]-N2-(3,5-dimethyl-4-methoxy)phenyl-5-methyl-2,4-pyrimidinediamine] | 179 |
| Cc1cc(Nc2ncc(Cl)c(Nc3ccc4c(c3)S(=O)(=O)NCC4)n2)cc(C)c1C [VII-9, 5-Chloro-N4-[3,4-dihydro-1,1-dioxide-2H-1,2-benzothiazin-7-yl]-N2-[3,4,5-trimethylphenyl]-2,4-pyrimidinediamine] | 1340 |
| COc1cc(Nc2ncc(C)c(Nc3ccc(CNS(=O)(=O)C4CC4)cc3)n2)cc(Cl)c1OC [II-198, 5-Methyl-N4-[4-(N-cyclopropylsulfonylamino)methylphenyl]-N2-[3,4-dimethoxy-5-chlorophenyl]-2,4-pyrimidinediamine] | 116 |
| CCOc1c(C)cc(Nc2ncc(Cl)c(Nc3ccc(CNS(N)(=O)=O)cc3)n2)cc1C [II-147, N4-[4-(Aminosulfonylamino)methylphenyl]-5-chloro-N2-(3,5-Dimethyl-4-ethoxyphenyl)-2,4-pyrimidinediamine] | 142 |
| CCN1CCN(c2ccc(Nc3ncc(Cl)c(Nc4ccc(CCNS(=O)(=O)C5CC5)cc4)n3)c(C(F)(F)F)c2)CC1 [II-57, 5-Chloro-N4[4-(N-cyclopropylsulfonylamino)ethylphenyl]-N2-[4-(4-ethylpiperazino)-2-trifluoromethylphenyl]-2,4-pyrimidinediamine] | 1700 |
| Cc1cnc(Nc2ccc(N3CCN(C)CC3)cc2)nc1Nc1ccc(CNS(=O)(=O)N(C)C)cc1 [II-104, N4-[(4-(Dimethylamino)sulfonylamino)methylphenyl]-5-methyl-N2-[4-(4-methyl-1-piperazinyl)phenyl]-2,4-pyrimidinediamine] | 349 |
| Cc1cc(CNS(=O)(=O)C2CC2)cc(Nc2nc(Nc3ccc(N4CCN(C5CC6CCC5C6)CC4)cc3)ncc2Cl)c1 (stereo not drawn) [II-76, N-(3-(2-(4-(4-(bicyclo[2.2.1]heptan-2-yl)piperazin-1-yl)phenylamino)-5-chloropyrimidin-4-ylamino)-5-methylbenzyl)cyclopropanesulfonamide] | 1310 |
| CCNS(=O)(=O)NCc1ccc(Nc2nc(Nc3cc(C)c(OC)c(OC)c3)ncc2C)cc1 [II-117, N2-(3,4-Dimethoxy-5-methylphenyl)-N4-[(4-(ethylamino)sulfonylamino)methylphenyl]-5-methyl-2,4-pyrimidinediamine] | 208 |

More lines, in order of falling IC50, values ahead:

| IC50 [nM] | Compound |
| --- | --- |
| 20300 | Cc1cnc(Nc2ccc(N3CCC(F)(F)CC3)cc2)nc1Nc1ccc(CNS(=O)(=O)N(C)C)cc1 [II-105, N4-[(4-(Dimethylamino)sulfonylamino)methylphenyl]-N2-[4-(4,4-difluoro-1-piperidinyl)phenyl]-5-methyl-2,4-pyrimidinediamine] |
| 13200 | 5-Chloro-N4-[3,4-dihydro-1,1-dioxide-2H-1,2-benzothiazin-7-yl]-N2-[4-(N-methylpiperizin-4-yl)phenyl]-2,4-pyrimidinediamine [VII-5] |
| 5970 | O=S(=O)(NCc1ccc(Nc2nc(Nc3ccc(N4CCN(C5CC6CCC5C6)CC4)cc3)ncc2Cl)cc1)C1CC1 (stereo not drawn) [II-61, N-(4-(2-(4-(4-(bicyclo[2.2.1]heptan-2-yl)piperazin-1-yl)phenylamino)-5-chloropyrimidin-4-ylamino)benzyl)cyclopropanesulfonamide] |
| 2260 | Cc1cc(Nc2ncc(C)c(Nc3ccc(CNS(=O)(=O)NC4CC4)cc3)n2)ccc1N1CCN(C)CC1 [II-172, N4-[4-((N-Cyclopropylamino)sulfonylamino)methylphenyl]-5-methyl-N2-[3-methyl-4-(4-methyl-1-piperazinyl)phenyl]-2,4-pyrimidinediamine] |
| 1640 | COc1cc(Nc2ncc(C)c(Nc3ccc4c(c3)C(NS(=O)(=O)C3CC3)CC4)n2)cc(OC)c1OC (racemic) [V-3] |
| 1510 | COc1c(C)cc(Nc2ncc(C(F)(F)F)c(Nc3ccc(CNS(=O)(=O)C4CC4)cc3)n2)cc1C [II-126, N4-[4-(N-Cyclopropylsulfonylamino)methylphenyl]-N2-(3,5-dimethyl-4-methoxyphenyl)-5-trifluoromethyl-2,4-pyrimidinediamine] |
| 1390 | CCc1cnc(Nc2cc(C)c(OC)c(Cl)c2)nc1Nc1ccc(CNS(=O)(=O)C2CC2)cc1 [II-83, N2-(3-Chloro-4-methoxy-5-methylphenyl)-N4-[4-(N-cyclopropylsulfonylamino)methylphenyl]-5-ethyl-2,4-pyrimidinediamine] |
| 1300 | O=S(=O)(NCc1ccc(Nc2nc(Nc3ccc(-c4cccnc4)cc3)ncc2Cl)cc1)C1CC1 [II-193, 5-Chloro-N4-[4-(N-cyclopropylsulfonylamino)methylphenyl]-N2-[4-(3-pyridinyl)phenyl]-2,4-pyrimidinediamine] |
| 1170 | COc1c(Cl)cc(Nc2ncc(C)c(Nc3ccc(CNS(=O)(=O)N(C)C)cc3)n2)cc1Cl [II-102, 5-methyl-N2-[3,5-dichloro-4-methoxyphenyl]-N4-[(4-(dimethylamino)sulfonylamino)methylphenyl]-2,4-pyrimidinediamine] |
| 643 | Cc1cc(CNS(=O)(=O)NC2CC2)ccc1Nc1nc(Nc2cc(C)c(OC(C)C)c(C)c2)ncc1Cl [II-177, 5-Chloro-N2-(3,5-dimethyl-4-(1-methylethoxy)phenyl)-N4-[2-methyl-4-((N-cyclopropylamino)sulfonylamino)methylphenyl]-2,4-pyrimidinediamine] |
| 472 | 5-Chloro-N4[4-(N-cyclopropylsulfonylamino)ethylphenyl]-N2-[4-(6-methoxy-2-methyl-methoxy)phenyl]-2,4-pyrimidinediamine [II-50] |
| 467 | N4-[4-(N-cyclopropylsulfonylamino)ethylphenyl)]-5-methyl-N2-[4-(6-methoxy-2-methyl)methoxyphenyl]-2,4-pyrimidinediamine [II-66] |
| 251 | 5-Chloro-N4-[4-[N-(Cyclopropylsulfonyl)-N′-((3-ethoxycarbonyl)propion-1-yl)amino]methylphenyl]-N2-(3,5-dimethyl-4-methoxyphenyl)-2,4-pyrimidinediamine [II-140] |
| 174 | COc1c(C)cc(Nc2ncc(C)c(Nc3ccc(CNS(=O)(=O)C4CC4)cc3)n2)cc1C [II-201, 5-Methyl-N4-[4-(N-cyclopropylsulfonylamino)methylphenyl]-N2-[3,5-dimethyl-4-methoxyphenyl]-2,4-pyrimidinediamine] |
